{"source": "patent US20230226089A1", "about": "“METHODS AND COMPOSITIONS FOR TREATING DISEASES ASSOCIATED WITH SENESCENCE” (Atropos Therapeutics, Inc., priority 2019, published 2023)", "key": {"LS8817^TetONFMDM2 cells": {"system": "LS8817^TetONFMDM2 cells", "assay": "SA-β-gal positive cells in LS8817 TetON FLAG-MDM2 cells", "type": "cell-based", "experimental": "The ability of tipifarnib to induce senescence was confirmed in the LS8817^TetONFMDM2 cells used in Example 2. LS8817^TetONFMDM2 cells were treated with either doxycycline alone for 8 days (DOX, black), doxycycline for three days followed by […] of 10 μg/ml doxycycline and 0.2 μM palbociclib (PD+DOX, Brown), or doxycycline for two days followed by three days of doxycycline and palbociclib followed by five days of doxycycline+palbociclib+0.1 μM tipifarnib (PD+DOX->tipi, green). ATRX foci and nuclear size were evaluated as describe previously. […] ATRX foci are shown in green, and DAPI staining in blue. […] The cells treated with 3 days of doxycycline and palbociclib followed by 5 days of tipifarnib had SA-β-gal in about 60% of cells compared to the cells treated with doxycycline and palbociclib for 8 days which had SA-β-gal in less than 10% of cells. Treatment with tipifarnib caused a greater than 6-fold increase in the number of senescent cells."}, "HGPS fibroblasts": {"system": "HGPS fibroblasts", "assay": "Senescent cells (ATRX foci vs nuclear area) in progeria patient fibroblasts", "type": "cell-based, human", "experimental": "Normal diploid fibroblasts (NDF) and fibroblasts from a patient with premature aging syndrome (HGPS) were used to model human skin and to determine the effect of calcitriol on senescence in these cells. Calcitrol, a synthetic version of Vitamin D3, can reverse some symptoms of progeria. To assess the effect of calcitrol on senescence NDF and HGPS fibroblasts were cultured and treated with 0.5 μM calcitriol for up to 10 days. Cells were then stained for SA-β-gal. FIG. 11A and FIG. 11B show representative images of SA-β-gal negative and positive cells respectively. […] This experiment was repeated at least three times using different passages, a representative similarly passaged experiment is shown. […] The horizontal line demarcates the 90th percentile in ATRX foci number, a stringent definition of the senescent state. The vertical line demarcates the 70th percentile of nuclear area. Cells in the upper right quadrant are senescent (ATRX^highNV^large). […]\nThe natural extracts were also tested on fibroblast cells as described in Example 4. NDF and HGPS fibroblasts were treated with the natural product extracts for 7 days and then assessed for ATRX foci number, cell size and cell number, as indicated in the experimental design in FIG. 19. […] The data shown is representative of at least two different experiments for each mixture analyzed at multiple doses and multiple times."}}, "data": [{"smiles": "CC(=O)c1c(C)c2cnc(Nc3ccc(N4CCNCC4)cn3)nc2n(C2CCCC2)c1=O", "note": "[palbociclib]", "values": [{"measurement": "cells positive for SA-β-gal", "setting": "LS8817^TetONFMDM2 cells; doxycycline and palbociclib for 8 days", "result": "less than 10%"}, {"measurement": "cells SA-β-gal positive", "setting": "LS8817^TetONFMDM2 cells; palbociclib alone (without doxycycline)", "result": "about 80%"}]}, {"smiles": "C=C1/C(=C\\C=C2/CCC[C@]3(C)[C@@H]([C@H](C)CCCC(C)(C)O)CC[C@@H]23)C[C@@H](O)C[C@@H]1O", "note": "[calcitriol]", "values": [{"measurement": "accumulation of senescent cells (ATRX foci number, nuclear size distribution)", "setting": "HGPS fibroblasts; 0.5 μM calcitriol up to 10 days", "result": "decreased the accumulation of senescent cells"}, {"measurement": "percentage of senescent cells (ATRX high, large nuclear area quadrant)", "setting": "HGPS fibroblasts; HGPS cells, treated 7 days, about 10% without treatment", "result": "about 0%"}]}, {"smiles": "Cn1cncc1[C@@](N)(c1ccc(Cl)cc1)c1ccc2c(c1)c(-c1cccc(Cl)c1)cc(=O)n2C", "note": "[tipifarnib]", "values": [{"measurement": "cells positive for SA-β-gal", "setting": "LS8817^TetONFMDM2 cells; 3 days doxycycline and palbociclib followed by 5 days tipifarnib", "result": "about 60%"}, {"measurement": "increase in the number of senescent cells", "setting": "LS8817^TetONFMDM2 cells; tipifarnib added vs doxycycline and palbociclib 8 days", "result": "greater than 6 fold"}]}]}
